# Experimental data reported in patent publication US20080274522A1, “METHOD FOR THE PRODUCTION OF 2-BUTANONE” (priority 2007, published 2008).
# Read-outs that look alike come from different tables or passages of the source.
# Experiments:
# E. coli strain MG1655 [1] = conditions: log-phase
# Method: A similar study was done with log-phase cultures of E. coli grown in a defined medium. E. coli strain MG1655 was allowed to grow overnight in MOPS 0.2% glucose medium (Teknova, Half Moon Bay, Calif.) at 42° C. or 28° C. The following day, the cultures were diluted into fresh medium and allowed to grow at the same temperature until in the log phase of growth. […] To these were added 10 μL of the log phase cultures and the tubes were immediately placed in shaking incubators at 42° C. or 28° C. or left on ice for 30 min. […] Then 5 μL of the undiluted treated cultures were spotted on LB agar plates. Subsequent 10-fold serial dilutions of 10^−3, 10^−4, 10^−5 and 10^−6 of the exposed cultures were done by serial pipetting of 20 μL, starting with the 10^−2 dilution cultures, into 180 μL of LB medium in the microplate, using a multi-channel pipette. Prior to each transfer, the cultures were mixed by pipetting up and down six times. Each dilution (5 μL) was spotted onto an LB plate using a multi-channel pipette and allowed to soak into the plate. The plates were inverted and incubated overnight at 37° C. […] Survival of 0% was recorded when no colonies in the spots of the undiluted or any of the serial dilutions were observed.
# E. coli strain MG1655 [2] = conditions: stationary phase
# Method: For the stationary phase studies, E. coli strain MG1655 (ATCC # 700926) was grown overnight in LB medium (Teknova, Half Moon Bay, Calif.) with shaking at 250 rpm at 42° C., […] 28° C. […] To these were added 10 μL of the overnight cultures and the tubes were immediately placed in shaking incubators at 42° C. or 28° C. or left on ice for 30 min. […] Then, 5 μL of the undiluted treated cultures were spotted on LB agar plates. Subsequent 10-fold serial dilutions of 10^−3, 10^−4, 10^−5 and 10^−6 of the exposed cultures were done by serial pipetting of 20 μL, starting with the 10^−2 dilution cultures, into 180 μL of LB medium in the microplate, using a multi-channel pipette. Prior to each transfer, the cultures were mixed by pipetting up and down six times. Each dilution (5 μL) was spotted onto an LB plate using a multi-channel pipette and allowed to soak into the plate. The plates were inverted and incubated overnight at 37° C. […] Survival of 0% was recorded when no colonies in the spots of the undiluted or any of the serial dilutions were observed.
# [3] = 1-butanol 1.0 % (w/v), grown at 28° C.
# [4] = 1-butanol 1.0 % (w/v), grown at 42° C.
# [5] = 1-butanol 1.5 % (w/v), grown at 28° C.
# [6] = 1-butanol 1.5 % (w/v), grown at 42° C.
# [7] = 1-butanol 2.0 % (w/v), grown at 28° C.
# [8] = 1-butanol 2.0 % (w/v), grown at 42° C.
# [9] = 1-butanol 3.0 % (w/v), grown at 28° C.
# [10] = 1-butanol 3.0 % (w/v), grown at 29° C.
# [11] = 1-butanol 3.0 % (w/v), grown at 42° C.
# [12] = 1-butanol 4.0 % (w/v), grown at 28° C.
# [13] = 1-butanol 4.0 % (w/v), grown at 29° C.
# [14] = 1-butanol 4.0 % (w/v), grown at 42° C.
# [15] = 1-butanol 5.0 % (w/v), grown at 29° C.
# [16] = 1-butanol 5.0 % (w/v), grown at 42° C.
# [17] = 1-butanol 6.0 % (w/v), grown at 29° C.
# [18] = 1-butanol 6.0 % (w/v), grown at 42° C.
# [19] = 1-butanol […] (w/v), grown at 29° C.
# [20] = 1-butanol […] (w/v), grown at 42° C.
# [21] = 1-butanol 1.0 % (w/v), grown at 29° C.
# [22] = 1-butanol 1.5 % (w/v), grown at 29° C.
# [23] = 1-butanol 2.0 % (w/v), grown at 29° C.
substance,measurement,setting,value
1-butanol,% survival after 30 min exposure at 42° C.,E. coli strain MG1655 [1]; [3],100%
same,% survival after 30 min exposure at 42° C.,E. coli strain MG1655 [1]; [4],100%
same,% survival after 30 min exposure at 28° C.,E. coli strain MG1655 [1]; [5],100%
same,% survival after 30 min exposure at 42° C.,E. coli strain MG1655 [1]; [5],0%
same,% survival after 30 min exposure at 28° C.,E. coli strain MG1655 [1]; [6],100%
same,% survival after 30 min exposure at 42° C.,E. coli strain MG1655 [1]; [6],0%
same,% survival after 30 min exposure at 28° C.,E. coli strain MG1655 [1]; [7],100%
same,% survival after 30 min exposure at 42° C.,E. coli strain MG1655 [1]; [7],0%
same,% survival after 30 min exposure at 28° C.,E. coli strain MG1655 [1]; [8],100%
same,% survival after 30 min exposure at 42° C.,E. coli strain MG1655 [1]; [8],0%
same,% survival after 30 min exposure at 28° C.,E. coli strain MG1655 [1]; [9],0%
same,% survival after 30 min exposure at 42° C.,E. coli strain MG1655 [1]; [9],0%
same,% survival after 30 min exposure at 0° C.,E. coli strain MG1655 [1]; [10],100%
same,% survival after 30 min exposure at 0° C.,E. coli strain MG1655 [1]; [11],100%
same,% survival after 30 min exposure at 28° C.,E. coli strain MG1655 [1]; [11],0%
same,% survival after 30 min exposure at 42° C.,E. coli strain MG1655 [1]; [11],0%
same,% survival after 30 min exposure at 28° C.,E. coli strain MG1655 [1]; [12],0%
same,% survival after 30 min exposure at 42° C.,E. coli strain MG1655 [1]; [12],0%
same,% survival after 30 min exposure at 0° C.,E. coli strain MG1655 [1]; [13],100%
same,% survival after 30 min exposure at 0° C.,E. coli strain MG1655 [1]; [14],100%
same,% survival after 30 min exposure at 28° C.,E. coli strain MG1655 [1]; [14],0.001%
same,% survival after 30 min exposure at 42° C.,E. coli strain MG1655 [1]; [14],0%
same,% survival after 30 min exposure at 0° C.,E. coli strain MG1655 [1]; [15],50%
same,% survival after 30 min exposure at 0° C.,E. coli strain MG1655 [1]; [16],10%
same,% survival after 30 min exposure at 0° C.,E. coli strain MG1655 [1]; [17],1%
same,% survival after 30 min exposure at 0° C.,E. coli strain MG1655 [1]; [18],1%
same,% survival after 30 min exposure at 42° C.,"E. coli strain MG1655 [1]; 1-butanol […] (w/v), grown at 28° C.",0%
same,% survival after 30 min exposure at 0° C.,E. coli strain MG1655 [1]; [19],100%
same,% survival after 30 min exposure at 0° C.,E. coli strain MG1655 [1]; [20],100%
same,% survival after 30 min exposure at 42° C.,E. coli strain MG1655 [1]; [20],0%
same,% survival after 30 min exposure at 28° C.,E. coli strain MG1655 [2]; [3],100%
same,% survival after 30 min exposure at 0° C.,E. coli strain MG1655 [2]; [21],100%
same,% survival after 30 min exposure at 42° C.,E. coli strain MG1655 [2]; [21],100%
same,% survival after 30 min exposure at 0° C.,E. coli strain MG1655 [2]; [4],100%
same,% survival after 30 min exposure at 28° C.,E. coli strain MG1655 [2]; [4],100%
same,% survival after 30 min exposure at 42° C.,E. coli strain MG1655 [2]; [4],100%
same,% survival after 30 min exposure at 28° C.,E. coli strain MG1655 [2]; [5],100%
same,% survival after 30 min exposure at 0° C.,E. coli strain MG1655 [2]; [22],100%
same,% survival after 30 min exposure at 42° C.,E. coli strain MG1655 [2]; [22],0.1%
same,% survival after 30 min exposure at 0° C.,E. coli strain MG1655 [2]; [6],100%
same,% survival after 30 min exposure at 28° C.,E. coli strain MG1655 [2]; [6],100%
same,% survival after 30 min exposure at 42° C.,E. coli strain MG1655 [2]; [6],0.1%
same,% survival after 30 min exposure at 28° C.,E. coli strain MG1655 [2]; [7],100%
same,% survival after 30 min exposure at 0° C.,E. coli strain MG1655 [2]; [23],100%
same,% survival after 30 min exposure at 42° C.,E. coli strain MG1655 [2]; [23],0.1%
same,% survival after 30 min exposure at 0° C.,E. coli strain MG1655 [2]; [8],100%
same,% survival after 30 min exposure at 28° C.,E. coli strain MG1655 [2]; [8],100%
same,% survival after 30 min exposure at 42° C.,E. coli strain MG1655 [2]; [8],0%
same,% survival after 30 min exposure at 28° C.,E. coli strain MG1655 [2]; [9],100%
same,% survival after 30 min exposure at 0° C.,E. coli strain MG1655 [2]; [10],100%
same,% survival after 30 min exposure at 42° C.,E. coli strain MG1655 [2]; [10],0%
same,% survival after 30 min exposure at 0° C.,E. coli strain MG1655 [2]; [11],100%
same,% survival after 30 min exposure at 28° C.,E. coli strain MG1655 [2]; [11],100%
same,% survival after 30 min exposure at 42° C.,E. coli strain MG1655 [2]; [11],0%
same,% survival after 30 min exposure at 28° C.,E. coli strain MG1655 [2]; [12],0.0003%
same,% survival after 30 min exposure at 0° C.,E. coli strain MG1655 [2]; [13],100%
same,% survival after 30 min exposure at 42° C.,E. coli strain MG1655 [2]; [13],0%
same,% survival after 30 min exposure at 0° C.,E. coli strain MG1655 [2]; [14],100%
same,% survival after 30 min exposure at 28° C.,E. coli strain MG1655 [2]; [14],0.0004%
same,% survival after 30 min exposure at 42° C.,E. coli strain MG1655 [2]; [14],0%
same,% survival after 30 min exposure at 0° C.,E. coli strain MG1655 [2]; [15],1%
same,% survival after 30 min exposure at 0° C.,E. coli strain MG1655 [2]; [16],1%
same,% survival after 30 min exposure at 0° C.,E. coli strain MG1655 [2]; [17],0.001%
same,% survival after 30 min exposure at 0° C.,E. coli strain MG1655 [2]; [18],0%
same,% survival after 30 min exposure at 0° C.,"E. coli strain MG1655 [2]; 1-butanol 7.0 % (w/v), grown at 29° C.",0%
same,% survival after 30 min exposure at 0° C.,"E. coli strain MG1655 [2]; 1-butanol 7.0 % (w/v), grown at 42° C.",0%
same,% survival after 30 min exposure at 0° C.,E. coli strain MG1655 [2]; [19],100%
same,% survival after 30 min exposure at 42° C.,E. coli strain MG1655 [2]; [19],0%
same,% survival after 30 min exposure at 0° C.,E. coli strain MG1655 [2]; [20],100%
same,% survival after 30 min exposure at 42° C.,E. coli strain MG1655 [2]; [20],0%
